Results published in patent US4399126A, “Modulators of the complement system” (American Cyanamid Company, priority 1982, dated 1983).
Where two headings read alike, the source gives them in different places.

Key:
[1] = test system: complement system; conditions: Br. J. Exp. Pathol. 33: 327 (1952); cited from earlier work
[2] = test system: hereditary angioneurotic edema; conditions: literature reports; cited from earlier work
[3] = test system: human serum; conditions: in vitro and in vivo, judged by reduction in total hemolytic complement activity; cited from earlier work
[4] = test system: late components of human complement (C3-C9); assay: Test Code 035 (C3-C9 inhibitor), lysis of EAC 142; type: biochemical; conditions: serial twofold dilution assay; higher well number indicates higher activity
[5] = test system: complement activity of sera; assay: Guinea Pig Intraperitoneal Test (GPIP); type: in vivo; conditions: Cavia porcellus, ip, 200 mg/kg i.p., capillary complement assay
Procedure: Percent inhibition is calculated by comparison with simultaneous controls.

[6] = biological target: T1, activated human C1 (Homo sapiens, UniProt P09871); assay: Test Code 026 (C1 inhibitor); type: biochemical; conditions: serial twofold dilution assay; higher well number indicates higher activity
T1 sequence (P09871 16-437 limits assumed): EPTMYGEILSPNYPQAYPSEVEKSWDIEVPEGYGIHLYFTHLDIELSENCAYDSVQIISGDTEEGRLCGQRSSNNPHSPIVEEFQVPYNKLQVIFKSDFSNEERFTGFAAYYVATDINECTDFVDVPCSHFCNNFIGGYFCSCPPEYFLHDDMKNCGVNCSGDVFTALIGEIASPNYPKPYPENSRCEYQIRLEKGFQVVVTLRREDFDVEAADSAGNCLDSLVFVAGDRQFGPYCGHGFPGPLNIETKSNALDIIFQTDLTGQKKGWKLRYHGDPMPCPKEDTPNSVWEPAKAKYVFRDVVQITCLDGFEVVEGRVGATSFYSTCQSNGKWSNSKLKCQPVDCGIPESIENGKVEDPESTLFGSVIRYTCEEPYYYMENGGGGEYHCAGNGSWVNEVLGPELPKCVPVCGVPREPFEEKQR
T1 sequence (P09871 438-688 limits assumed): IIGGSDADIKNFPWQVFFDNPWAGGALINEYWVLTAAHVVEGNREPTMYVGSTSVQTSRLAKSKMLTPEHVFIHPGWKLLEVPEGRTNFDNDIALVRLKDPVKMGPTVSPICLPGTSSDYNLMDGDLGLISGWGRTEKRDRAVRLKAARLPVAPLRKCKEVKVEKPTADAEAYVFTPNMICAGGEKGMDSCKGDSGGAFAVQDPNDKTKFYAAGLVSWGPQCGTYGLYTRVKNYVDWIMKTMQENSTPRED

Molecule: heparin
- anticomplementary effect [1]: anticomplementary effect

Molecule: NCCCCCC(=O)O [epsilon-aminocaproic acid]
- success in the treatment of hereditary angioneurotic edema [2]: used with success

Molecule: pentosan-polysulfoester
- anticomplementary activity on human serum [3]: anticomplementary activity

Molecule: Nc1ccc2cc(S(=O)(=O)[O-])cc(O)c2c1N=Nc1ccc(NC(=O)Nc2ccc(N=Nc3c(N)ccc4cc(S(=O)(=O)[O-])cc(O)c34)c(S(=O)(=O)[O-])c2)cc1S(=O)(=O)[O-].[Na+].[Na+].[Na+].[Na+] [chlorazol fast pink, 3,3'-ureylenebis-[6-(2-amino-8-hydroxy-6-sulfo-1-naphthylazo)benzenesulfonic acid], tetrasodium salt]
- anticomplementary effect [1]: anticomplementary effect

Molecule: NC[C@H]1CC[C@H](C(=O)O)CC1 [tranexamic acid]
- success in the treatment of hereditary angioneurotic edema [2]: used with success

Molecule: O=C(CCCCCCC(=O)Nc1ccc(S[C@@H]2O[C@H](COS(=O)(=O)O)[C@@H](O[C@H]3O[C@H](COS(=O)(=O)O)[C@@H](OS(=O)(=O)O)[C@H](OS(=O)(=O)O)[C@H]3OS(=O)(=O)O)[C@H](OS(=O)(=O)O)[C@H]2OS(=O)(=O)O)cc1)Nc1ccc(S[C@@H]2O[C@H](COS(=O)(=O)O)[C@@H](O[C@H]3O[C@H](COS(=O)(=O)O)[C@@H](OS(=O)(=O)O)[C@H](OS(=O)(=O)O)[C@H]3OS(=O)(=O)O)[C@H](OS(=O)(=O)O)[C@H]2OS(=O)(=O)O)cc1.[Na].[Na].[Na].[Na].[Na].[Na].[Na].[Na].[Na].[Na].[Na].[Na].[Na].[Na] [Tetradecasodium N,N'-bis[4-[2,3,6-tri-O-sulfo-4-O-(2,3,4,6-tetra-O-sulfo-α-D-glucopyranosyl)-β-D-glucopyranosylthio]phenyl]octanediamide]
- in vitro Activity C-Late 035 Wells [4]: 1.5 Wells
- inhibition at 200 mg/kg ([5]; blood 2 hours after injection, read-out: in vivo Activity Guinea Pig % Inhibition Intraperitoneal, 2 hours): 87%
- inhibition at 200 mg/kg ([5]; blood 6 hours after injection, read-out: in vivo Activity Guinea Pig % Inhibition Intraperitoneal, 6 hours): 71%
- inhibition at 200 mg/kg ([5]; blood 24 hours after injection, read-out: in vivo Activity Guinea Pig % Inhibition Intraperitoneal, 24 hours): 44%
- in vitro Activity Cl 026 Wells [6]: 9 Wells
